Measured values taken from patent US20260008805A1, “ADENOSINE ANALOGS FOR THE TREATMENT OF DISEASE” (BIOINTERVENE, INC., priority 2022, published 2026).

Legend:
[1] = target: T1, human adenosine A3 receptor (Homo sapiens, UniProt P0DMS8); assay: Intracellular cAMP levels (inhibition of forskolin-stimulated cAMP production); assay type: cell-based; conditions: Table 1; for EC50: CHO-K1 cells expressing human adenosine A3 receptor, forskolin 10 μM; for cAMP Efficacy (%): maximal response as percentage of the response produced by 100 nM IB-MECA
T1 construct: expressed in transfected cells; host or cells: CHO-K1 cells, stably transfected
T1 sequence (P0DMS8 1-318): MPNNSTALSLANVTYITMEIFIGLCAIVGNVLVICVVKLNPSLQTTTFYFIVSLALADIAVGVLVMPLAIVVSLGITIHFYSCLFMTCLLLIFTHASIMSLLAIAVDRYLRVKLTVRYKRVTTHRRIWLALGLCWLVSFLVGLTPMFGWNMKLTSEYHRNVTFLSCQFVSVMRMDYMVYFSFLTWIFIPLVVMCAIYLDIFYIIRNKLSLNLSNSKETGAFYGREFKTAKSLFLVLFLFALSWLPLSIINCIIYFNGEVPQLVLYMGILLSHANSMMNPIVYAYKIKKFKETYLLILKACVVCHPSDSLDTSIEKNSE
Text: The method followed is that published in Yates L, Clark J H, Martin T J, James S, Broadley K J, Kidd E J. Radioligand binding and functional responses of ligands for human recombinant adenosine A3 receptors. Auton Autacoid Pharmacol. 2006 April; 26 (2): 191-200.
Materials and Cell Culture: Adenosine deaminase is obtained from Roche (Lewes, UK). Forskolin is obtained from Sigma-Aldrich (Poole, UK). The sources of other materials are provided above in Example 1. CHO-K1 cells stably transfected with the human adenosine A3 receptor are grown in Dulbecco's modified Eagles medium with nutrient mixture F12 containing NaHCO3 and Glutamax. Media is supplemented with 10% fetal calf serum, geneticin (G418; 0.67 mg/mL), hygromycin (500 μg/mL) and adenosine deaminase (1 U/mL). Cells are maintained at 37° C. with 5% CO2 in air.
CAMP Measurements: Intracellular cAMP production is measured directly using a non-acetylation cAMP enzyme immunoassay (Amersham Biosciences, Little Chalfont, UK). Cultured CHO cells expressing human adenosine A3 receptors are allowed to plate overnight in 96-well plates in culture medium containing adenosine deaminase. Twenty-four hours later, they are incubated with adenosine analogues or compounds of the invention (0.1 nM-1 μM) for 5 min at 37° C., followed by incubation with forskolin (10 μM) for 10 min. The cells are then lysed with 200 μL of lysis reagent 1 provided with the kit for 10 min to release intracellular CAMP. Aliquots of the supernatants are then transferred to a 96-well microtitre plate coated with donkey anti-rabbit IgG; 100-μL cAMP standards (12.5-3200 fmol/well) are also added to the microtitre plate; 100 μL of rabbit anti-cAMP antibody is added to all wells and incubated at 2-5° C. for 2 h. The antiserum is made up in lysis reagent 2, which sequesters the key component in lysis reagent 1 and ensures that CAMP is free for subsequent analysis. Then 50 μL of cAMP peroxidase conjugate is added to all wells and left to incubate for 60 min at 2-5° C. to allow competition for the antibody between the un-labelled and horse radish peroxidase (HRP)-labelled cAMP. Wells are then ished with buffer and 150 μL of enzyme substrate containing 3,3′,5,5′-tetramethylbenzidine/hydrogen peroxide in 20% (v/v) dimethylformamide is added to each well and left to incubate for 60 min on a Titramax 100 microtitre plate shaker (Heidolph Instruments, Schwabach, Germany) at room temperature for color development. The reaction is stopped by the addition of 100 μL of 1 M sulfuric acid and the optical density (OD) read at 450 nm on a spectrophotometric MRX microplate reader (Dynex Technologies, Chantilly, VA, USA).
Analyses: Each sample/standard was analyzed in duplicate and the resulting OD values averaged. The percent bound (B/B0) for each standard and sample was calculated using the following relationship:
[formula] • where B is the specific OD for standard/sample and B0 is the specific OD for the zero standard. A standard curve was generated by plotting % B/B0 as a function of the log fmol cAMP standard per well. The fmol per well value for cAMP in each sample was then read from the graph. The results are expressed as a percent of control agonist response: (measured response/control response)*100 in the presence of the compounds of the invention. Concentration-response curves for inhibition of cAMP production were constructed for all compounds of the invention and reference compounds. The EC50 values (concentration producing a half-maximal response) were determined by non-linear regression analysis of the concentration-response curves generated with mean replicate values using Hill equation curve fitting, according to the equation:
[formula] • where Y=response, A=left asymptote of the curve, D=right asymptote of the curve, C=compound concentration, and C50=EC50, and nH=slope factor. […]

human A3 receptors = target: T2, human A3 receptors (Homo sapiens, UniProt P0DMS8); assay: Adenosine receptor binding assay ([3H]HEMADO competition); conditions: Table 1, membranes of HEK-293 cells expressing human A3 receptor, Cheng-Prusoff, read-out: hA3 Ki
T2 construct: expressed in transfected cells; host or cells: HEK-293 cells, stably transfected; membrane preparation
T2 sequence (P0DMS8 1-318): T1 sequence (P0DMS8 1-318)
Text: Materials and Reference Compounds: [^3H] HEMADO (obtained from (ARC, Cat: ART1456) and [3H] DPCPX (obtained from PerkinElmer Cat no. NET974250UC)). IB-MECA was obtained from Tocris (Bristol, UK) and N6-cyclopentyl adenosine (CPA) is obtained from Sigma-Alrich (Poole, UK). Cell culture media, G418 and hygromycin are obtained from Invitrogen (Paisley, UK). Fetal calf serum is obtained from Perbio Science (Cheshire, UK). All other reagents are obtained from Fisher Chemicals (Loughborough, UK).
The method followed is that of Yates L, Clark J H, Martin T J, James S, Broadley K J, Kidd E J. Radioligand binding and functional responses of ligands for human recombinant adenosine A3 receptors. Auton Autacoid Pharmacol. 2006; 26 (2): 191-200. Cells stably transfected with the human adenosine A3 or A1 receptor are grown in Dulbecco's modified Eagles medium with nutrient mixture F12 containing NaHCO3 and Glutamax. Media is supplemented with 10% fetal calf serum, geneticin (G418; 0.67 mg/mL), hygromycin (500 μg/mL) and adenosine deaminase (1 U/mL). Cells are maintained at 37° C. with 5% CO2 in air. Cells are harvested and homogenized in ice-cold Tris buffer [50 mM Tris, 150 mM NaCl, 1 mM ethylenediaminetetraacetic acid (EDTA), pH 7.4] supplemented with the peptidase inhibitors, 4-(2-aminoethyl)benzene sulfonylfluoride (1 mM) and bacitracin (0.1 mg/mL), using a Polytron homogenizer (3×10 s bursts). The homogenate is spun for 10 min (4° C.) at 500 g. The supernatant is retained and the pellet is re-suspended in the buffer, homogenized and spun as above. The combined supernatants are centrifuged for 15 min (4° C.) at 48,000 g. The resultant pellet is re-suspended in the buffer and centrifuged for a second time at 48,000 g. The membrane pellet is then suspended in Tris buffer containing no peptidase inhibitors or adenosine deaminase and stored at −80° C. at a protein concentration of 1 mg/mL.
Binding Assays: Radioligand-binding assays are performed using the adenosine A3 receptor agonist [^3H] HEMADO and the A1 receptor […] [^3H] DPCPX. Binding assays are conducted in a total volume of 100 μL containing a 50 mM Tris, pH 7.4 buffer with or without 10 mM MgCl2, 20 μg membranes and either 4.154 nM [3H] HEMADO (for the A3 receptor) or 1.6065 nM [^3H] DPCPX (for the A1 receptor). Assays are conducted at room temperature for 60 min (A1 receptor) or 120 min (A3 receptor) and terminated by the addition of 2 ml of ice-coldish buffer (50 mM Tris, pH 7.4 with or without 10 mM MgCl2) and rapid filtration over 0.03% polyethylenimine-treated Whatman GF/C filters using a Brandel cell harvester (Semat International Ltd., St Albans, UK). Filters are then ished three times with 2 ml of ice-cold buffer. The filter-bound radioactivity are counted using a Compugamma counter (LKB Wallac, Turku, Finland). Competition experiments are performed to investigate the ability of reference compounds and embodiments of the invention to inhibit [^3H] HEMADO binding. Non-specific binding are determined using the respective compound at its highest concentration.
Data Analysis: The Kd and Bmax values for binding data are calculated based upon the molar amounts of bound and free [^3H] HEMADO. […] IC50 and Ki values and Hill slopes for inhibition of the radioligand binding by the compounds of the invention are calculated from the ligand competition curves using the Excel spreadsheet and the Kd value calculated for either [^3H] HEMADO or [^3H] DPCPX. The results are expressed as a percent of control specific binding and as a percent inhibition of control specific binding obtained in the presence of the compounds of the invention. The IC50 values (concentration causing a half-maximal inhibition of control specific binding) and Hill coefficients (nH) are determined by non-linear regression analysis of the competition curves generated with mean replicate values using Hill equation curve fitting: […]

| SMILES | EC50 [1] [nM] | cAMP Efficacy (%) [1] [%] | Ki (human A3 receptors) [nM] |
| --- | --- | --- | --- |
| Cc1cc2c(Cl)nc3c(ncn3[C@H]3[C@H](O)[C@H](O)[C@]4(c5ncn(C)n5)C[C@H]34)c2[nH]1 [Compound 2B] | 0.17 | 104 | 1.24 |
| Cc1nc2c(Cl)nc3c(ncn3[C@H]3[C@H](O)[C@H](O)[C@]4(c5nnn(C)n5)C[C@H]34)c2[nH]1 [Compound 3B] | 1 | 31.72 | 1.27 |
| Cn1nnc([C@@]23C[C@@H]2[C@@H](n2cnc4c5[nH]c(C=O)cc5c(Cl)nc42)[C@H](O)[C@@H]3O)n1 [Compound 4B] | 100 | 10 | 2.72 |
| Cn1nnc([C@@]23C[C@@H]2[C@@H](n2cnc4c5[nH]c(CO)cc5c(Cl)nc42)[C@H](O)[C@@H]3O)n1 [Compound 5B] | 3 | 34.29 | 2.83 |
| Cc1cc2c(Cl)nc3c(ncn3[C@H]3[C@H](O)[C@H](O)[C@]4(c5ncc[nH]5)C[C@H]34)c2[nH]1 [Compound 6B] | 0.14 | 105.39 | 6.36 |
| N#Cc1cc(NCc2cc(Cl)ccc2Cl)c2ncn([C@H]3[C@H](O)[C@H](O)[C@]4(c5ncc[nH]5)C[C@H]34)c2n1 [Compound 8B] | 1.87 | 104.81 | 12.1 |
| O[C@H]1[C@H](n2cnc3c(NCc4cc(Cl)ccc4Cl)cc(Cl)nc32)[C@H]2C[C@@]2(c2ncc[nH]2)[C@H]1O [Compound 9B] | 4.61 | 103.89 | 38.6 |
| CCNc1cc(Cl)nc2c1ncn2[C@H]1[C@H](O)[C@H](O)[C@]2(c3ncco3)C[C@H]12 [Compound 10B] | 16.1 | 70.12 | 41 |
| CCNc1cc(Cl)nc2c1ncn2[C@H]1[C@H](O)[C@H](O)[C@]2(c3ncc[nH]3)C[C@H]12 [Compound 12B] | 5.5 | 107.37 | 31.2 |
| CCNc1cc(Cl)nc2c1ncn2[C@H]1[C@H](O)[C@H](O)[C@]2(c3nnn(C)n3)C[C@H]12 [Compound 13B] | – | 2 | 2.1 |
| O[C@H]1[C@H](n2cnc3c(NCC(F)F)cc(Cl)nc32)[C@H]2C[C@@]2(c2ncn[nH]2)[C@H]1O [Compound 14B] | 27.2 | 89.97 | 21.7 |
